The target in assay [1] is T1, GCK-GKRP interaction (recombinant human GST-GCK and FLAG-GKRP) (Homo sapiens, UniProt P35557+Q14397).
T1 construct: made in house
T1 sequence (P35557 1-465): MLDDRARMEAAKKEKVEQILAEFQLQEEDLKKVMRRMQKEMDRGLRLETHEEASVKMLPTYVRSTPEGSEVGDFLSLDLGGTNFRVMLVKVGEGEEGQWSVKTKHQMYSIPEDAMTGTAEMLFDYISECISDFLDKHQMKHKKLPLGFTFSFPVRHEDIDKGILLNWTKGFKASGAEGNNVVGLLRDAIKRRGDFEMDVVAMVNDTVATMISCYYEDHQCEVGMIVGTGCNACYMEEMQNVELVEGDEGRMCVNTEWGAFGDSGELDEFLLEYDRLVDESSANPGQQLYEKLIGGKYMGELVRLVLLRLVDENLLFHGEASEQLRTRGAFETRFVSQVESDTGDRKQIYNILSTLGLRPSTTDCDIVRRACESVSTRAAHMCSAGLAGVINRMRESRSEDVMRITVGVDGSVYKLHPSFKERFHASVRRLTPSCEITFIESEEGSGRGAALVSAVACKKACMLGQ
T1 sequence (Q14397 1-625): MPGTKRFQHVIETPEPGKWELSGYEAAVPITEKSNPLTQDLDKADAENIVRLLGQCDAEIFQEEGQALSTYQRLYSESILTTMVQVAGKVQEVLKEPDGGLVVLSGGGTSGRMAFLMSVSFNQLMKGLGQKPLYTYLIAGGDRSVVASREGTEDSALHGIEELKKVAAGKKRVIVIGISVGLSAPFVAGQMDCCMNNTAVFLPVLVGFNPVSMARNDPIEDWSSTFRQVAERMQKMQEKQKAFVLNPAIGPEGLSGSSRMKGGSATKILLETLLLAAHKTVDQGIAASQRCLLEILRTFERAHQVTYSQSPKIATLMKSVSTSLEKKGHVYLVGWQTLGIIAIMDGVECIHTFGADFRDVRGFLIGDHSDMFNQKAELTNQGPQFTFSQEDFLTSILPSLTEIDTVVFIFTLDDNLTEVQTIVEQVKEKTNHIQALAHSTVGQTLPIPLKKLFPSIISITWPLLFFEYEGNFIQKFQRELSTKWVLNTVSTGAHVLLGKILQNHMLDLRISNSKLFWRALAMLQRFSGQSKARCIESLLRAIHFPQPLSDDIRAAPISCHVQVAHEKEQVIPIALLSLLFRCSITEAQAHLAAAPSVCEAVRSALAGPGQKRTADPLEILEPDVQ
Briefly: HTRF assay of the GCK-GKRP protein-protein interaction. In kind it is binding. The conditions noted are these: 5 nM GCK, 5 nM GKRP. On the procedure:
Homogeneous time-resolved fluorescence (HTRF) technology (Cisbio Bioassays, Bedford, MA, USA) was utilized for antibody-based FRET measurement of the GCK-GKRP protein-protein interaction. Recombinant human GST-GCK and FLAG-GKRP were mixed in an HTRF assay buffer containing 2 mM MgCl2, 25 mM KCl, 25 mM HEPES, 1 mM DTT, 0.1% Tween-20, and 0.025% BSA (all buffer components Sigma-Aldrich). The pH was adjusted to 7.1 by drop-wise addition of 10 N NaOH. […] For assays in 1536-well plate format, the two reaction mixes were dispensed using an Aurora Discovery BioRAPTR Flying Reagent Dispenser (BioRAPTR; Beckman Coulter, Inc., Brea, CA, USA) (3 µl/well for protein-containing buffer; 1 µl/well for detection antibodies) into white 1536-well solid-bottom medium binding plates (Greiner Bio-One, Monroe, NC, USA). […] For the LOPAC^1280 library screen, column 1 was all components with DMSO (maximum signal) and column 3 was no GKRP with DMSO (minimum signal). These two control columns were used for data normalization. The final HTS protocol is in Table S1, and the data have been deposited in PubChem (AID 743207).
(§1) S6P, F1P, and glucose were dissolved in water; GKAs were dissolved in DMSO.
The assay was validated using a range (0–150 nM) of GCK and GKRP concentrations at manufacturer-recommended detection antibody concentrations ( Figure 2A ). Fluorescence was measured immediately upon mixing, and every 30 minutes thereafter for a total of 240 minutes. The plate was covered and incubated at room temperature throughout the course of the experiment.
The assay was miniaturized to 1536-well plate format and, concurrently, specificity of detection was validated by using known modulators of the GCK-GKRP interaction.
The EC80 value represents a compromise between the desire for large enough signal enhancement and the need to maintain a binding level that is not too saturated so that it can be outcompeted by compounds of interest. Additionally, this approach enables detection of specific competitors of S6P, which would likely be acting on GKRP as desired, and not on GCK. […] Both glucose and GKAs interfere with the binding of GKRP to GCK and decrease GKRP inhibition, [44], [45], while F1P binds to GKRP and is competitive with respect to S6P [46].
(In general: In TR-FRET formats the signal depends on donor and acceptor labels being close together.)

For assay [2], the system named is europium-conjugated rabbit anti-mouse IgG antibody / mouse anti-FLAG XL 665 antibody. Briefly: IgG HTRF counter-assay. Conditions: no GCK or GKRP, mean ± SD. As to the method:
as §1
(TIF) Click here for additional data file.

In the next assay the test system is GCK and GKRP. Further details: method as in PMID 14627435. Conditions: enhancement of the interaction of GCK and GKRP; read-out: EC50, previously reported; cited from earlier work.

The IC50 is the concentration that inhibits the measured activity by half. The EC80 is the concentration at which the effect reaches the 80% level. In general, EC50 refers to the concentration giving half of the maximal effect.

Molecules are shown by their SMILES. Counter-ions that a name gives are not always drawn.

Regarding `O=C(O)C1=CC(=C(c2ccc(O)c(C(=O)O)c2)c2ccc(O)c(C(=O)O)c2)C=CC1=O` [ATA, aurintricarboxylic acid], the LOPAC1280 screen outcome in assay [1] (2 µM S6P) was “inhibitors of the GCK-GKRP interaction”. For the same molecule, the IC50 in assay [2] came out at 0.09 ± 0.03 µM.
Turning to `O=C(COP(=O)(O)O)[C@@H](O)[C@H](O)[C@H](O)CO` [F1P, fructose 1-phosphate], the IC50 in assay [1] (2 µM S6P, mean ± SD, read-out: IC50 (inhibition of GCK-GKRP interaction, HTRF signal)) stood at 70 ± 5.4 µM.
On to `O=P(O)(O)OC[C@@H](O)[C@@H](O)[C@H](O)[C@@H](O)CO` [S6P, sorbitol 6-phosphate], for which the EC80 in assay [1] turned out to be 2 µM. Further, the EC50 was 0.4 ± 0.08 µM in assay [1] (1536-well, mean ± SD, read-out: EC50 (enhancement of HTRF signal)); around 0.5 µM in the assay with GCK and GKRP.
With `Cc1ccc(C(=O)Nc2ccc(S(=O)(=O)O)c3cc(S(=O)(=O)O)cc(S(=O)(=O)O)c23)cc1NC(=O)c1cccc(NC(=O)Nc2cccc(C(=O)Nc3cc(C(=O)Nc4ccc(S(=O)(=O)O)c5cc(S(=O)(=O)O)cc(S(=O)(=O)O)c45)ccc3C)c2)c1` [suramin sodium salt], the LOPAC1280 screen outcome in assay [1] (2 µM S6P) is “inhibitors of the GCK-GKRP interaction”. The midpoint of inhibition in assay [2], the IC50, lay at 0.25 ± 0.07 µM.

The values above are taken from article PMC3929664, “A Panel of Diverse Assays to Interrogate the Interaction between Glucokinase and Glucokinase Regulatory Protein, Two Vital Proteins in Human Disease” (PLoS ONE, 2014).
